Experimental data as given in ChEMBL document CHEMBL5291721, “A preclinical secondary pharmacology resource illuminates target-adverse drug reaction associations of marketed drugs” (Nat Commun, 2023).

How the values were obtained:
[1] = target: T1, Corticotropin-releasing factor receptor 2 (Homo sapiens, UniProt Q13324)
T1 sequence (Q13324 whole entry): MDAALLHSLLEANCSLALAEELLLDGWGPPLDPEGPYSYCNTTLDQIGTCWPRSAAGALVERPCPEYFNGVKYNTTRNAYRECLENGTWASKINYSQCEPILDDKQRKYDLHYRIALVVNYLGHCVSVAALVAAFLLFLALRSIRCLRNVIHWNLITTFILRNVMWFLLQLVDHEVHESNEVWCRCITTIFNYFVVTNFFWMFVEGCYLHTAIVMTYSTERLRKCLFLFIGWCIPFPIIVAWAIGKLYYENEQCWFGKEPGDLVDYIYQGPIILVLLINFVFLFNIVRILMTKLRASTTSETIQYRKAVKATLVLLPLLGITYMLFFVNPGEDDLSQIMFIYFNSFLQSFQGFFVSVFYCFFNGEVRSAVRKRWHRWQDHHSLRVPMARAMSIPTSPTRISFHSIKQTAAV

Glucocorticoid receptor [2] = target: T2, Glucocorticoid receptor (Homo sapiens, UniProt P04150); type: functional
T2 sequence (P04150 whole entry): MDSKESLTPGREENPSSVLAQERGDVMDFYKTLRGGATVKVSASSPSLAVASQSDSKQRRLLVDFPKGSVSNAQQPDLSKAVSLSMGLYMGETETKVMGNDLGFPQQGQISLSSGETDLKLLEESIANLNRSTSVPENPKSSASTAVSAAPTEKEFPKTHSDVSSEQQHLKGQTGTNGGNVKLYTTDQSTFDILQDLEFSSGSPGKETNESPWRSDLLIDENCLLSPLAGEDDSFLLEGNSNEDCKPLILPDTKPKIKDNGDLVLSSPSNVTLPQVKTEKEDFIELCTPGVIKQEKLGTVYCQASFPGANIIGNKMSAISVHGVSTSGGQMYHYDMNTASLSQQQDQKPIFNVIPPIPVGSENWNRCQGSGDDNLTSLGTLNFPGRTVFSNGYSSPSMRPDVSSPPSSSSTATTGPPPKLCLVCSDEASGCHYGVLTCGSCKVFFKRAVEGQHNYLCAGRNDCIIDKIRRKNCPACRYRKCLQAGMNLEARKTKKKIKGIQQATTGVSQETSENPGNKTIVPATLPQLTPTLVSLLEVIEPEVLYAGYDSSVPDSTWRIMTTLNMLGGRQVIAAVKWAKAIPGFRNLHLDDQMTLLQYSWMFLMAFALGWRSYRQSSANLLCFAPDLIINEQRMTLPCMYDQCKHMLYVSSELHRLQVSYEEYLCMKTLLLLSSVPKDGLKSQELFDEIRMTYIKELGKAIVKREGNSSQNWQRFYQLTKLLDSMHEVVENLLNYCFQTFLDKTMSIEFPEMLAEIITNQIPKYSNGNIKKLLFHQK

[3] = target: Gamma-aminobutyric acid receptor subunit alpha-1/alpha-2/beta-2/gamma-2 (Homo sapiens, UniProt P14867+P18507+P47869+P47870); type: functional, cell-based
Chain of Gamma-aminobutyric acid receptor subunit alpha-1/alpha-2/beta-2/gamma-2 (P14867 whole entry): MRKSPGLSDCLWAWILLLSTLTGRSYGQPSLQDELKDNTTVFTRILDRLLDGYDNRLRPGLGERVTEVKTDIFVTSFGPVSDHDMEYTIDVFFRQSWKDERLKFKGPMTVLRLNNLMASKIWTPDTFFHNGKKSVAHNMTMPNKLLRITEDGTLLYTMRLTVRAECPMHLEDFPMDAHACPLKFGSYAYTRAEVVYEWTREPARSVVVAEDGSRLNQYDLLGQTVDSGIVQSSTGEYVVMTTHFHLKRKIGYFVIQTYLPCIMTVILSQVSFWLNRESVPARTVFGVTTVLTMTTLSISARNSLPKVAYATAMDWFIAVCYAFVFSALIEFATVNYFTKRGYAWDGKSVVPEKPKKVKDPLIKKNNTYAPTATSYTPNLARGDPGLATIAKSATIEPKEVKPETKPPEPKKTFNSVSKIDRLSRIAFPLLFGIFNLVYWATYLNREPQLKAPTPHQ
Chain of Gamma-aminobutyric acid receptor subunit alpha-1/alpha-2/beta-2/gamma-2 (P47870 whole entry): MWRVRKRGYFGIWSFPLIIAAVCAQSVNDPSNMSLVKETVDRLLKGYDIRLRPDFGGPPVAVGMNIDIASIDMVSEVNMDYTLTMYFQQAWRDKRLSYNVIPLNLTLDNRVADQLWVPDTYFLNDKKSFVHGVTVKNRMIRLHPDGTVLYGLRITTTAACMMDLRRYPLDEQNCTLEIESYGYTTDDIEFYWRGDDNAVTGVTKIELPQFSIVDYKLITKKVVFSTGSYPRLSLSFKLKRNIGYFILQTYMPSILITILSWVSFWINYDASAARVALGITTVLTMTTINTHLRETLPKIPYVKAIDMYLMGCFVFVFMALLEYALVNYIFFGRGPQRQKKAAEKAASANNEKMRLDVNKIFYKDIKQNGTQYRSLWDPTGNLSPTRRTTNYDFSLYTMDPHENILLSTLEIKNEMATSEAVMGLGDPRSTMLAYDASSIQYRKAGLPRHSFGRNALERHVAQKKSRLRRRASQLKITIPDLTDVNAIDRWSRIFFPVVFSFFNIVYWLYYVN
Chain of Gamma-aminobutyric acid receptor subunit alpha-1/alpha-2/beta-2/gamma-2 (P18507 whole entry): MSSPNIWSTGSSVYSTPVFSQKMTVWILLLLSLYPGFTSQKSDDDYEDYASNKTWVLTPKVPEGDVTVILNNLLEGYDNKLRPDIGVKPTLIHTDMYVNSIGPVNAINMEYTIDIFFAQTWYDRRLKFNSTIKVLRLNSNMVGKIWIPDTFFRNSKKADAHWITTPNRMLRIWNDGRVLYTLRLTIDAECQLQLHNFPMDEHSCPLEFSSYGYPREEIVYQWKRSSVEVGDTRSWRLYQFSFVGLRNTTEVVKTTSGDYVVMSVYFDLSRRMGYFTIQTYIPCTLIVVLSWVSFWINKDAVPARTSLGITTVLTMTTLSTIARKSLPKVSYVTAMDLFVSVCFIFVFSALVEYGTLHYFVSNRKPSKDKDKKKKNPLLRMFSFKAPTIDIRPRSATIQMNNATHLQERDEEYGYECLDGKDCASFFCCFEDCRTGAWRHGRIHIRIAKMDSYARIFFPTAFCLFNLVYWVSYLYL
Chain of Gamma-aminobutyric acid receptor subunit alpha-1/alpha-2/beta-2/gamma-2 (P47869 whole entry): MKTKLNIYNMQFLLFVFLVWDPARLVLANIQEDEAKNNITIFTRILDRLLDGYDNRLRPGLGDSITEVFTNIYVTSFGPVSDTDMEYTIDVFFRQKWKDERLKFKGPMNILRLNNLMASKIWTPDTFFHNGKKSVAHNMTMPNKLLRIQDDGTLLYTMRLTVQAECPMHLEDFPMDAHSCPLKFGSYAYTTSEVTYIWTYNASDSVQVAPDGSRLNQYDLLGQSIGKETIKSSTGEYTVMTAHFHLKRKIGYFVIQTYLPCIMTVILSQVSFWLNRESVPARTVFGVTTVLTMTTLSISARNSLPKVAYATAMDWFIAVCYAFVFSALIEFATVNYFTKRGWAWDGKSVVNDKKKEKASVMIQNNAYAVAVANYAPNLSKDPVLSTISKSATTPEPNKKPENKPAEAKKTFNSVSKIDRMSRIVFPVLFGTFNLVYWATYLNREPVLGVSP

B1 bradykinin receptor = target: T3, B1 bradykinin receptor (Homo sapiens, UniProt P46663)
T3 sequence (P46663 whole entry): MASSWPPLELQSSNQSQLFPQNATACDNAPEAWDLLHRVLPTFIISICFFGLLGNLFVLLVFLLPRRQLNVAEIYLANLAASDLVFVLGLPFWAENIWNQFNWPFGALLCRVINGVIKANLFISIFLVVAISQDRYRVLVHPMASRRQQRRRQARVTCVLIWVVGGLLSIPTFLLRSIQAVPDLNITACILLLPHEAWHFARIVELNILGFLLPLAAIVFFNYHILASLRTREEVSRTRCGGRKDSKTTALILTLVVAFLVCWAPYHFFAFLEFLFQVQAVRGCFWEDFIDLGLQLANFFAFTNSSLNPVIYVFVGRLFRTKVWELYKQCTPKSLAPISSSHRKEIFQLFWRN

[4] = target: T4, Corticotropin-releasing factor receptor 1 (Homo sapiens, UniProt P34998)
T4 sequence (P34998 whole entry): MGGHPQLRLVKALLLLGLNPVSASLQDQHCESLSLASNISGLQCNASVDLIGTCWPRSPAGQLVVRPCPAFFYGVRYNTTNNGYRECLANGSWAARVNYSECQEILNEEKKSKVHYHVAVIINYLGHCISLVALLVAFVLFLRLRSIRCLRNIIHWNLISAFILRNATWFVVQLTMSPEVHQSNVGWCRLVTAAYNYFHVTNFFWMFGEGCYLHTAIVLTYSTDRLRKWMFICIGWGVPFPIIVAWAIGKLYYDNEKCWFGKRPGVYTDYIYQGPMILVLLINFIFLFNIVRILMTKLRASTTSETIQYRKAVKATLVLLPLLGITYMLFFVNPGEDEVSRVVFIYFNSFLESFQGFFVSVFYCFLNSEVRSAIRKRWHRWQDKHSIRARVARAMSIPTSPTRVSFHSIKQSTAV

Glucocorticoid receptor [5] = target: T2, Glucocorticoid receptor; type: functional; remark: listed apart in the source
Estrogen receptor beta = Estrogen receptor beta (Homo sapiens, UniProt Q92731)
Chain of Estrogen receptor beta (Q92731 whole entry): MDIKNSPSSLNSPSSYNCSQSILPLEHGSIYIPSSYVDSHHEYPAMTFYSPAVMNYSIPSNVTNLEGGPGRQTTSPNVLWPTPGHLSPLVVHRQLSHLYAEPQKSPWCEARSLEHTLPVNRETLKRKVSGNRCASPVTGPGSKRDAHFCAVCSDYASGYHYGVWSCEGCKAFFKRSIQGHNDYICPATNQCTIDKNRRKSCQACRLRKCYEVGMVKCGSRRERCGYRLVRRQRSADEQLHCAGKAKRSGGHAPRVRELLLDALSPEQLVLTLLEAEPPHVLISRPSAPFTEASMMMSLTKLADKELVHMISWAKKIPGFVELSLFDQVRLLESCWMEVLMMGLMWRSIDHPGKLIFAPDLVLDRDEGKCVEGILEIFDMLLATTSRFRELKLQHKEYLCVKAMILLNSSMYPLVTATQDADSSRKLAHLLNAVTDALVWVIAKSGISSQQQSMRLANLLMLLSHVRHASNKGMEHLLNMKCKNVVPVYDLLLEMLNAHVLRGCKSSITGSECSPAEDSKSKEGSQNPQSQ

[6] = target: Gamma-aminobutyric acid receptor subunit alpha-1 (Rattus norvegicus, UniProt P62813)
Chain of Gamma-aminobutyric acid receptor subunit alpha-1 (P62813 whole entry): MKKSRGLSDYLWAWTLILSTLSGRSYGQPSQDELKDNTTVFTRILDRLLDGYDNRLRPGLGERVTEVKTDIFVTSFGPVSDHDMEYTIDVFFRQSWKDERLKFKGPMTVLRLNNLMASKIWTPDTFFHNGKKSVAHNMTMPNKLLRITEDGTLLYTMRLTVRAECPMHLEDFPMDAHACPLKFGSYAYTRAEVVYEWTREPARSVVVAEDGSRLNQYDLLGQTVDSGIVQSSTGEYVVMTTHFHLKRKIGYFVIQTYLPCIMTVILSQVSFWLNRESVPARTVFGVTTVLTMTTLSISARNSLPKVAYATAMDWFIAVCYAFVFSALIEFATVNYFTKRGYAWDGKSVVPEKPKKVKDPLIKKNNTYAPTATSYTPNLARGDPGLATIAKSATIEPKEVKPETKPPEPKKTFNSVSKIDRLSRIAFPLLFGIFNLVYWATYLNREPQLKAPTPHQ

Measured: AC50
Further: assay procedure not described here.

CC(N)Cc1ccccc1 (stereo unspecified) [AMPHETAMINE]
not listed: [6]
> 30 µM: all other assays above

O=C(NC[C@H]1CN(c2ccc(N3CCOCC3=O)cc2)C(=O)O1)c1ccc(Cl)s1 [RIVAROXABAN]
> 30 µM: Glucocorticoid receptor [2] | [3] | [6] | Glucocorticoid receptor [5]
